This test deals with α-synuclein cytotoxicity in M17-SYNwt cells. The experiment in a line: α-synuclein cytotoxicity assay: LDH leakage from paraquat-treated M17-SYNwt neuroblastoma cells.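 For all read-outs here: paraquat at 32 mM co-added with compound, 40 h exposure, LDH activity released into the culture medium measured, references are DMSO-only cells and paraquat plus DMSO cells.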 Particulars: Homo sapiens, Neuroblastoma cell; for Emax: read-out: % Inhib. Background: LDH in the medium is a marker of cell lysis.

Molecules are shown by their SMILES.

Consider `CC1CN(c2nc(Cc3ccc(F)cc3)ns2)CCN1C(=O)c1ccc(C(C)(C)C)cc1` (stereo not drawn) [compound 128, 1-(4-tert-butylbenzoyl)-4-[3-(4-fluorobenzyl)-1,2,4-thiadiazol-5-yl]-2-methylpiperazine], for which it took 0.24 µM to reach a half-maximal effect (EC50) and the Emax came out at 95%.
With `CCc1ccc(C(=O)N2CCN(c3nc(Cc4ccc(Cl)cc4)ns3)CC2)cc1` [compound 165, 1-(4-ethylbenzoyl)-4-[3-(4-chlorobenzyl)-1,2,4-thiadiazol-5-yl]piperazine], the Emax was 133%.
As to `CCc1ccc(C(=O)N2CCN(c3nc(Cc4ccc(C)cc4)ns3)CC2)cc1` [compound 131, 1-(4-ethylbenzoyl)-4-[3-(4-methylbenzyl)-1,2,4-thiadiazol-5-yl]piperazine], a half-maximal effect (EC50) was put at 0.25 µM and the Emax was 91%.
For the compound `CC(C)(C)c1ccc(C(=O)N2CCN(c3nc(Cc4ccc(F)cc4)ns3)CC2)cc1` [compound 180, 1-(4-tert-butylbenzoyl)-4-[3-(4-fluorobenzyl)-1,2,4-thiadiazol-5-yl]piperazine], the Emax came to 62%.
With `CC1CN(c2nc(Cc3ccc(F)cc3)ns2)CCN1C(=O)CCc1ccccc1` (stereo not drawn) [compound 89, 1-(3-phenylpropanoyl)-4-[3-(4-fluorobenzyl)-1,2,4-thiadiazol-5-yl]-2-methylpiperazine], the EC50 (in general, the concentration at which the effect is half-maximal) was found to be 0.6 µM and the Emax came out at 86%.
For `CC(=O)Nc1ccc(S(=O)(=O)N2CCN(c3nc(Cc4ccc(F)cc4)ns3)CC2C)cc1` (stereo not drawn) [compound 55, 1-[4-acetamidophenylsulfonyl]-4-[3-(4-fluorobenzyl)-1,2,4-thiadiazol-5-yl]-2-methylpiperazine] the same measures were 0.0781 µM and 114%.
`CC(C)(C)c1ccc(S(=O)(=O)N2CCN(c3nc(Cc4ccc(F)cc4)ns3)CC2)cc1` [compound 30, 1-[4-tert-butylphenylsulfonyl]-4-[3-(4-fluorobenzyl)-1,2,4-thiadiazol-5-yl]piperazine]: the Emax turned out to be 51%.
As for `CCc1ccc(C(=O)NCCN2CCN(c3nc(Cc4ccc(F)cc4)ns3)CC2)cc1` [compound 103, 4-ethyl-N-{2-[4-[3-(4-fluorobenzyl)-1,2,4-thiadiazol-5-yl]piperazin-1-yl]ethyl}benzamide], a half-maximal response (EC50) required 2.32 µM and the Emax was 139%.
In the case of `COc1ccc(NC(=O)N2CCN(c3nc(Cc4ccc(F)cc4)ns3)CC2)c(OC)c1` [compound 27, N-(2,4-dimethoxyphenyl)-4-[3-(4-fluorobenzyl)-1,2,4-thiadiazol-5-yl]piperazine-1-carboxamide], the Emax came out at 67%.
Same read-out and setting: to `CCCCCCc1ccc(C(=O)N2CCN(c3nc(Cc4ccc(C)cc4)ns3)CC2)cc1` [compound 176, 1-(4-hexylbenzoyl)-4-[3-(4-methylbenzyl)-1,2,4-thiadiazol-5-yl]piperazine] belongs 77%.
Turning to `CCc1ccc(C(=O)N2CCN(c3nc(Cc4ccc(F)cc4)ns3)CC2C)cc1` (stereo not drawn) [compound 116, 1-(4-ethylbenzoyl)-4-[3-(4-fluorobenzyl)-1,2,4-thiadiazol-5-yl]-2-methylpiperazine], the EC50 came out at 0.0522 µM and the Emax turned out to be 71%.
In the same order, the values of `O=C(c1ccc(F)cc1)N1CCN(c2nc(Cc3ccc(Cl)cc3)ns2)CC1` [compound 153, 1-(4-fluorobenzoyl)-4-[3-(4-chlorobenzyl)-1,2,4-thiadiazol-5-yl]piperazine] are 1.44 µM and 53%.
In the same order, the values of `CCCCCc1ccc(C(=O)NCCN2CCN(c3nc(Cc4ccc(F)cc4)ns3)CC2)cc1` [compound 94, 4-pentyl-N-{2-[4-[3-(4-fluorobenzyl)-1,2,4-thiadiazol-5-yl]piperazin-1-yl]ethyl}benzamide] are 0.35 µM and 90%.
For `CCCCS(=O)(=O)N1CCN(c2nc(Cc3ccc(C)cc3)ns2)CC1` [compound 83, 1-(butylsulfonyl)-4-[3-(4-methylbenzyl)-1,2,4-thiadiazol-5-yl]piperazine] the same measures were 2.64 µM and 36%.
On to `CCC(C(=O)N1CCN(c2nc(Cc3ccc(F)cc3)ns2)CC1C)c1ccccc1` (stereo not drawn) [compound 8, 1-(2-phenylbutanoyl)-4-[3-(4-fluorobenzyl)-1,2,4-thiadiazol-5-yl]-2-methylpiperazine], for which the EC50 came to 1.49 µM and the Emax came to 71%.
As for `CCCCCCc1ccc(C(=O)NCCN2CCN(c3nc(Cc4ccc(F)cc4)ns3)CC2)cc1` [compound 96, 4-hexyl-N-{2-[4-[3-(4-fluorobenzyl)-1,2,4-thiadiazol-5-yl]piperazin-1-yl]ethyl}benzamide], the EC50 is 0.8 µM and the Emax stood at 72%.
Consider `O=C(c1cccc(Cl)c1)N1CCN(c2nc(Cc3ccc(F)cc3)ns2)CC1` [compound 138, 1-(3-chlorobenzoyl)-4-[3-(4-fluorobenzyl)-1,2,4-thiadiazol-5-yl]piperazine], for which a half-maximal effect (EC50) was put at 0.36 µM and the Emax stood at 81%.
Consider `Fc1ccc(Cc2nsc(N3CCN(c4cccc(C(F)(F)F)c4)CC3)n2)cc1` [compound 188, 1-(3-trifluoromethylphenyl)-4-[3-(4-fluorobenzyl)-1,2,4-thiadiazol-5-yl]piperazine], for which the Emax was found to be 96%.
In the case of `Cc1ccccc1NC(=O)N1CCN(c2nc(Cc3ccc(F)cc3)ns2)CC1` [compound 15, N-(2-methylphenyl)-4-[3-(4-fluorobenzyl)-1,2,4-thiadiazol-5-yl]piperazine-1-carboxamide], the response was half-maximal at 5.01 µM (EC50) and the Emax is 65%.
Regarding `CC1CN(c2nc(Cc3ccc(F)cc3)ns2)CCN1C(=O)c1ccc([N+](=O)[O-])cc1Cl` (stereo not drawn) [compound 177, 1-(2-chloro-4-nitrobenzoyl)-4-[3-(4-fluorobenzyl)-1,2,4-thiadiazol-5-yl]-2-methylpiperazine], the Emax stood at 77%.
Still for that read-out and setting: the result for `COc1cccc(Cc2nsc(N3CCN(C(=O)c4ccc(Cl)cc4)C(C)C3)n2)c1` (stereo not drawn) [compound 174, 1-(4-chlorobenzoyl)-4-[3-(3-methoxybenzyl)-1,2,4-thiadiazol-5-yl]-2-methylpiperazine] reads 83%.
Regarding `Cc1ccc(Cc2nsc(N3CCN(CCNC(=O)Cc4ccc(F)cc4)CC3)n2)cc1` [compound 109, 2-(4-fluorophenyl)-N-{2-[4-[3-(4-methylbenzyl)-1,2,4-thiadiazol-5-yl]piperazin-1-yl]ethyl}acetamide], the concentration for a half-maximal effect (EC50) stood at 3.52 µM and the Emax worked out at 93%.
For `COc1ccc(S(=O)(=O)N2CCN(c3nc(Cc4ccccc4)ns3)CC2)cc1` [compound 199, 1-[4-methoxyphenylsulfonyl]-4-[3-benzyl-1,2,4-thiadiazol-5-yl]piperazine] the same measures were 0.0038 µM and 38%.
For `Cc1ccc(Cc2nsc(N3CCN(S(=O)(=O)c4ccc(F)cc4)CC3)n2)cc1` [compound 57, 1-[4-fluorophenylsulfonyl]-4-[3-(4-methylbenzyl)-1,2,4-thiadiazol-5-yl]piperazine] the same measures were 0.0104 µM and 88%.
In the same order, the values of `O=C(Nc1ccccc1F)N1CCN(c2nc(Cc3ccc(F)cc3)ns2)CC1` [compound 16, N-(2-fluorophenyl)-4-[3-(4-fluorobenzyl)-1,2,4-thiadiazol-5-yl]piperazine-1-carboxamide] are 5.68 µM and 72%.

The values are drawn from patent US7960556B2, “Thiadiazole derivatives for the treatment of neuro-degenerative diseases” (NV reMYND, priority 2006, dated 2011).
